{
  "source": "patent US4468469A",
  "about": "“Substituted phenylacetic acids and salts as TBP blocking agents in iodothyronine immunoassays” (Miles Laboratories, Inc., priority 1982, dated 1984)",
  "key": {"[1]": {"tested_on": "serum proteins (thyroxine binding protein, TBP)", "assay": "Dissociation of thyroxine from human serum, first experiment (Sephadex LH-20 column, pH 6.5)", "protocol": "Approximately 3 milliliters (ml) of human serum was allowed to equilibrate with radioactive iodine-labeled thyroxine (^125 I-thyroxine obtained from Amersham-Searle, Arlington Heights, Ill., USA) for about 8 hours.\nThen 100 microliter (μl) aliquots of this serum were combined with 300 μl aliquots of 0.1 molar (M) sodium phosphate buffer, pH 6.5, containing various concentrations of fenclofenac (British Pat. No. 1,308,327; example 6). Then 180 μl aliquots of each of these mixtures were applied to 2 ml columns of Sephadex LH-20 (Pharmacia Fine Chemicals, Piscataway, N.J. USA) equilibrated with 0.1M sodium phosphate buffer, pH 6.5. The radioactivity on the columns was measured and the columns were washed with 5 ml of the buffer. The radioactivity of each column was measured again and the results (shown below in Table 1) used as estimates of thyroxine dissociated from serum proteins."}, "[2]": {"tested_on": "serum proteins (thyroxine binding protein, TBP)", "assay": "Dissociation of thyroxine from human serum, second experiment (Seralute Sephadex column, pH 7.0)", "details": "for release and block the binding of protein-bound iodothyronine: summary of both experiments of Example I; for Percent Dissociated: pH 7.0, 5 min", "protocol": "(§1) Radioactive iodine labeled thyroxine (^125 I-thyroxine obtained from Amersham-Searle, Arlington Heights, IL, USA) was equilibrated with 5 ml of normal human serum for 48 hours at 4° C. […] After 5 minutes of incubation at room temperature, a 165 μl aliquot was applied to a Sephadex® column from a Seralute® thyroxine assay kit (Miles Laboratories, Inc., Ames Division, Elkhart, IN, USA), which had been equilibrated with 0.1M sodium phosphate, pH 7.0. The total radioactivity applied to the columns was measured and the undissociated material was washed through the column with 3 ml of buffer. The columns were counted to determine the percentage of thyroxine dissociated from the serum proteins."}, "apoglucose oxidase": {"molecular_target": "apoglucose oxidase (Aspergillus niger, UniProt P13006)", "sequence (P13006 17-605)": "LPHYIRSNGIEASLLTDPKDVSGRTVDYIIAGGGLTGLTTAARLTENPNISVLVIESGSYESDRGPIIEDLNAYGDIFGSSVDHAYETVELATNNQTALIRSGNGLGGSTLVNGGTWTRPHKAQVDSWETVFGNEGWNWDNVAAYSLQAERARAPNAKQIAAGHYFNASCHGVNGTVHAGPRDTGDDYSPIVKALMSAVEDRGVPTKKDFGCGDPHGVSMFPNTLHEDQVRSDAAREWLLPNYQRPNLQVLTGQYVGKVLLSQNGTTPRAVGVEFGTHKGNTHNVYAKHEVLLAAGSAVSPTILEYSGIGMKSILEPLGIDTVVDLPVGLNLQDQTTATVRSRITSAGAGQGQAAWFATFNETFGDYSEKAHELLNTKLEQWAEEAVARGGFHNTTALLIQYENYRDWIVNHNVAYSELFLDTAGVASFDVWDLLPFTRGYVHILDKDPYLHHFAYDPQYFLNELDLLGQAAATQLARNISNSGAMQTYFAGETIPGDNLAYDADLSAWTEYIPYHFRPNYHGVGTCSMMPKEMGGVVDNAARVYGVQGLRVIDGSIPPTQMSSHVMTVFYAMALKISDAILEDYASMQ", "assay": "Activation of apoglucose oxidase by FAD-theophylline conjugate (fenclofenac)", "format": "biochemical", "details": "5 min, 37° C., read-out: Percent Apoglucose Oxidase Activity", "protocol": "A series of apoenzyme reactivation measurements were set up with different concentrations of fenclofenac. The assays were performed at 37° C. and the final reagent concentrations in 0.1M phosphate buffer, pH 7.0, were 1.0 nanomolar (nM) FAD-labeled conjugate (an FAD-theophylline conjugate as described in U.S. Pat. No. 4,238,565), 50 nM apoglucose oxidase (U.S. Pat. No. 4,268,631), 2.5 μl/ml anti(glucose oxidase) antiserum, 2 mM sodium dichlorohydroxybenzene sulfonate (DHSA), 0.2 mM 4-aminoantipyrine, 0.1M glucose, 20 μg/ml peroxidase, and 0.1% (w/v) bovine serum albumin. The apoenzyme and anti(glucose oxidase) were preincubated and the reaction then started by simultaneously mixing in the other reagents. The reaction mixtures were incubated for 5 minutes and then absorbance at 520 nm read. The results shown in Table 4 relate fenclofenac concentration to the generation of active glucose oxidase."}, "[3]": {"assay": "Fluorescence and fluorescence quenching studies (SLFIA conditions)", "details": "10 mM fenclofenac; excitation 400 nm, emission 450 nm, 50 mM Bicine buffer pH 8.3", "protocol": "Fluorescence measurements were conducted in 50 mM Bicine buffer (N,N-bis-(2-hydroxyethyl)glycine, Calbiochem-Behring, LaJolla, Calif., USA), pH 8.3, using an Aminco Bowman Fluorometer (American Instruments, Silver Springs, Md., USA), excitation set at 400 nm and emission at 450 nm, which are the fluorescence conditions for the β-galactosyl-umbelliferone enzyme substrate-labeled fluorescent immunoassay (SLFIA) described in U.S. Pat. No. 4,279,992.\nQuenching studies were performed by measuring the fluorescence of a 1.3 μM solution of 2-[7-hydroxy-3-carboxamidocoumarin]ethanol (U.S. Pat. No. 4,273,715) in the presence of various levels of fenclofenac. The ratios of observed fluorescence (F) to fluorescence in the absence of fenclofenac (Fo) versus fenclofenac concentration were calculated and are presented in Table 6."}, "dihydrofolate reductase": {"tested_on": "dihydrofolate reductase", "assay": "Effect on the activity of dihydrofolate reductase", "format": "biochemical", "details": "for Absorbance Change Over 10 Minutes: 560 nm, 37° C.", "protocol": "Assay mixtures were prepared to contain various concentrations of fenclofenac and, in a 1 ml final volume at 37° C., 0.3 mM thiazoyl blue, […] dihydrofolate, 0.5 mM NADPH, and 0.012 Units/ml of dihydrofolate reductase. The absorbance of each reaction mixture at 560 nm was read over a 10 minute incubation period at 37° C."}, "[4]": {"tested_on": "anti(thyroxine) antiserum / apoglucose oxidase", "assay": "Apoenzyme reactivation immunoassay system for serum thyroxine", "format": "biochemical", "details": "2 mM sodium salt of dissociating agent in buffer", "protocol": "Standard curves for serum thyroxine were generated using a semiautomated assay protocol on the Gilford Clinical Chemistry Analyzer System 203-S (Gilford Instrument Laboratories, Oberline, OH, USA). […] The FAD-thyroxine conjugate (40 nM in 0.1M sodium phosphate, pH 7.0, 0.01% Triton X-100) as a 0.05 ml aliquot was added to the reaction cup and allowed to equilibrate for 30 seconds. The reaction was initiated by addition of 0.10 ml 1.0 μM apoglucose oxidase, 2 mM 4-aminoantipyrine, 12% glycerol, 80 mM sodium phosphate, pH 7.0. The absorbance at 520 nm was recorded after an 8 minute incubation."}, "[5]": {"tested_on": "serum proteins (thyroxine binding protein, TBP)", "assay": "Effect of pH on the dissociation of iodothyronine from serum proteins", "set-up": "species or system human", "details": "for Percent Dissociated: dissociating agent 2.0 mM", "protocol": "as §1\nUsing the column procedure described in the second study in Example 1, the pH of the 0.1M sodium phosphate was varied and the concentration of the dissociating agent held constant at 2.0 mM. The columns were equilibrated with buffer containing the dissociating agent at the given pH and 165 μl of the serum diluted in buffer at the given pH (as described above) was applied to the column. The total counts were measured and then the columns were washed with buffer at the given pH. The counts remaining on the column represent the percentage of iodothyronine dissociated."}},
  "data": [
    {"compound": "O=C(O)Cc1ccccc1Oc1ccc(Cl)cc1Cl", "note": "[Fenclofenac, 2-(2,4-dichlorophenoxy)phenylacetic acid]", "values": [
      {"measurement": "Percent Thyroxine Dissociated", "setting": "[1]; 0.25 mM fenclofenac", "value": 50, "unit": "%"},
      {"measurement": "Percent Thyroxine Dissociated", "setting": "[1]; 0.50 mM fenclofenac", "value": 72, "unit": "%"},
      {"measurement": "Percent Thyroxine Dissociated", "setting": "[1]; 1.0 mM fenclofenac", "value": 79, "unit": "%"},
      {"measurement": "Percent Thyroxine Dissociated", "setting": "[1]; 2.0 mM fenclofenac", "value": 98, "unit": "%"},
      {"measurement": "Percent Thyroxine Dissociated", "setting": "[1]; 5.0 mM fenclofenac", "value": 100, "unit": "%"},
      {"measurement": "release and block the binding of protein-bound iodothyronine", "setting": "[2]; 0.25 mM in immunoassay reaction mixture", "value": "40-50%"},
      {"measurement": "release and block the binding of protein-bound iodothyronine", "setting": "[2]; 0.50 mM in immunoassay reaction mixture", "value": "60-70%"},
      {"measurement": "Percent Dissociated", "setting": "[2]; dissociating agent 0.25 mM", "value": 40, "unit": "%"},
      {"measurement": "Percent Dissociated", "setting": "[2]; dissociating agent 0.50 mM", "value": 61, "unit": "%"},
      {"measurement": "Percent Dissociated", "setting": "[2]; dissociating agent 1.00 mM", "value": 71, "unit": "%"},
      {"measurement": "Percent Dissociated", "setting": "[2]; dissociating agent 2.00 mM", "value": 75, "unit": "%"},
      {"measurement": "Percent Dissociated", "setting": "[2]; dissociating agent 4.00 mM", "value": 79, "unit": "%"},
      {"measurement": "Percent Dissociated", "setting": "[2]; dissociating agent 8.00 mM", "value": 81, "unit": "%"},
      {"measurement": "activity at 500 µM", "setting": "apoglucose oxidase; pH 7, 0.5 mM fenclofenac", "value": 81, "unit": "%"},
      {"measurement": "activity at 1000 µM", "setting": "apoglucose oxidase; pH 7, 1.0 mM fenclofenac", "value": 66, "unit": "%"},
      {"measurement": "activity at 1500 µM", "setting": "apoglucose oxidase; pH 7, 1.5 mM fenclofenac", "value": 61, "unit": "%"},
      {"measurement": "activity at 2000 µM", "setting": "apoglucose oxidase; pH 7, 2.0 mM fenclofenac", "value": 64, "unit": "%"},
      {"measurement": "activity at 2500 µM", "setting": "apoglucose oxidase; pH 7, 2.5 mM fenclofenac", "value": 47, "unit": "%"},
      {"measurement": "own fluorescence", "setting": "[3]", "value": "did not exhibit any fluorescence"},
      {"measurement": "Absorbance Change Over 10 Minutes", "setting": "dihydrofolate reductase; 0.1 mM fenclofenac", "value": 0.359},
      {"measurement": "Absorbance Change Over 10 Minutes", "setting": "dihydrofolate reductase; 0.2 mM fenclofenac", "value": 0.365},
      {"measurement": "Absorbance Change Over 10 Minutes", "setting": "dihydrofolate reductase; 0.5 mM fenclofenac", "value": 0.355},
      {"measurement": "Absorbance Change Over 10 Minutes", "setting": "dihydrofolate reductase; 1.0 mM fenclofenac", "value": 0.332},
      {"measurement": "Absorbance Change Over 10 Minutes", "setting": "dihydrofolate reductase; 2.5 mM fenclofenac", "value": 0.273},
      {"measurement": "Absorbance Change Over 10 Minutes", "setting": "dihydrofolate reductase; 5.0 mM fenclofenac", "value": 0.118},
      {"measurement": "inhibition of enzyme activity (dihydrofolate reductase)", "setting": "dihydrofolate reductase; concentrations below 1.0 mM", "value": "did not give substantial inhibition"},
      {"measurement": "Absorbance (520 nm)", "setting": "[4]; Thyroxine Standard 0 μg/L", "value": 0.797},
      {"measurement": "Absorbance (520 nm)", "setting": "[4]; Thyroxine Standard 25 μg/L", "value": 0.823},
      {"measurement": "Absorbance (520 nm)", "setting": "[4]; Thyroxine Standard 75 μg/L", "value": 0.893},
      {"measurement": "Absorbance (520 nm)", "setting": "[4]; Thyroxine Standard 125 μg/L", "value": 0.965},
      {"measurement": "Absorbance (520 nm)", "setting": "[4]; Thyroxine Standard 200 μg/L", "value": 1.078},
      {"measurement": "pH dependence of the dissociation of iodothyronine from serum proteins", "setting": "[5]; over the range pH 6.0-8.0, 2.0 mM", "value": "independent of pH"},
      {"measurement": "Percent Dissociated", "setting": "[5]; pH 6.0", "value": 84, "unit": "%"},
      {"measurement": "Percent Dissociated", "setting": "[5]; pH 6.5", "value": 84, "unit": "%"},
      {"measurement": "Percent Dissociated", "setting": "[5]; pH 7.0", "value": 86, "unit": "%"},
      {"measurement": "Percent Dissociated", "setting": "[5]; pH 7.5", "value": 85, "unit": "%"},
      {"measurement": "Percent Dissociated", "setting": "[5]; pH 8.0", "value": 83, "unit": "%"}
    ]}
  ]
}
